Laboratory results: patent publication US10645928B2, “Pesticidally active polycyclic derivatives with sulfur containing substituents” (Syngenta Participations AG, priority 2014, dated 2020)

Key:
Format in all cases: in vivo
[1] = tested on: Plutella xylostella (Diamond Back Moth); assay: Example B12: Plutella xylostella, treated artificial diet, mortality; details: 120 h, application rate of 200 ppm, L2 larvae, 5 days after infestation
Method: 24-well microtiter plates with artificial diet were treated with aqueous test solutions prepared from 10,000 ppm DMSO stock solutions by pipetting. After drying, the plates were infested with L2 larvae (10 to 15 per well). The samples were assessed for mortality 5 days after infestation.

[2] = tested on: Spodoptera littoralis (Egyptian Cotton Leaf Worm); assay: Example B14: Spodoptera littoralis, sprayed cotton leaf discs, anti-feeding effect; details: foliar, 72 h, application rate of 200 ppm, L1 larvae, 3 days after infestation
Method: Cotton leaf discs were placed onto agar in 24-well microtiter plates and sprayed with aqueous test solutions prepared from 10,000 ppm DMSO stock solutions. After drying the leaf discs were infested with five L1 larvae. The samples were assessed for anti-feeding effect in comparison to untreated samples 3 days after infestation. Control of Spodoptera littoralis by a test sample is given when the anti-feedant effect is higher than the untreated sample.

[3] = tested on: Spodoptera littoralis (Egyptian Cotton Leaf Worm); assay: Example B20: Spodoptera littoralis, compound in agar absorbed by lettuce roots, mortality; details: 144 h, test rate of 12.5 ppm, uptake by lettuce roots, Spodoptera eggs, 6 days after infestation
Description: Test compounds were applied by pipette prepared from 10,000 ppm DMSO stock solutions into 24-well plates and mixed with agar. Lettuce seeds were placed onto the agar and the multi well plate was closed by another plate which contained also agar. After 7 days the compound was absorbed by the roots and the lettuce grew into the lid plate. The lettuce leaves were then cut off into the lid plate.
Spodoptera eggs were pipetted through a plastic stencil onto a humid gel blotting paper and the lid plate was closed with it. The samples were assessed for mortality 6 days after infestation.

[4] = tested on: Diabrotica balteata (Corn Root Worm); assay: Example B3: Diabrotica balteata, sprayed maize sprouts, mortality; details: 96 h, application rate of 200 ppm, L2 larvae, 4 days after infestation
Method: Maize sprouts placed onto an agar layer in 24-well microtiter plates were treated with aqueous test solutions prepared from 10,000 ppm DMSO stock solutions by spraying. After drying, the plates were infested with L2 larvae (6 to 10 per well). The samples were assessed for mortality 4 days after infestation.

[5] = tested on: Spodoptera littoralis (Egyptian Cotton Leaf Worm); assay: Example B17: Spodoptera littoralis, sprayed cotton leaf discs, mortality, anti-feeding effect and growth inhibition; details: foliar, 72 h, application rate of 200 ppm, L1 larvae, 3 days after infestation, read-out: control (at least one of mortality, anti-feedant effect, growth inhibition)
Method: Cotton leaf discs were placed onto agar in 24-well microtiter plates and sprayed with aqueous test solutions prepared from 10,000 ppm DMSO stock solutions. After drying the leaf discs were infested with five L1 larvae. The samples were assessed for mortality, anti-feeding effect, and growth inhibition in comparison to untreated samples 3 days after infestation. Control of Spodoptera littoralis by a test sample is given when at least one of the categories mortality, anti-feedant effect, and growth inhibition is higher than the untreated sample.

[6] = tested on: Aedes aegypti (Yellow Fever Mosquito); assay: Example B23: Aedes aegypti, dry deposits in 12 well tissue culture plates, control; details: application rate of 200 ppm in ethanol, adult females, after 48 h and/or 24 h
Method: Test solutions, at an application rate of 200 ppm in ethanol, were applied to 12 well tissue culture plates. Once the deposits were dry, five, two to five day old adult female Aedes aegypti were added to each well, and sustained with a 10% sucrose solution in a cotton wool plug. Assessment of knockdown was made one hour after introduction, and mortality was assessed at 24 and 48 hours after introduction.

[7] = tested on: Euschistus heros (Neotropical Brown Stink Bug); assay: Example B6: Euschistus heros, sprayed soybean leaves, mortality and growth inhibition; details: 120 h, application rate of 200 ppm, N2 nymphs, 5 days after infestation, read-out: effect in at least one of the two categories (mortality or growth inhibition)
Method: Soybean leaves on agar in 24-well microtiter plates were sprayed with aqueous test solutions prepared from 10,000 ppm DMSO stock solutions. After drying the leaves were infested with N2 nymphs. The samples were assessed for mortality and growth inhibition in comparison to untreated samples 5 days after infestation.

[8] = tested on: Spodoptera littoralis (Egyptian Cotton Leaf Worm); assay: Example B16: Spodoptera littoralis, sprayed cotton leaf discs, mortality; details: foliar, 72 h, application rate of 200 ppm, L1 larvae, 3 days after infestation
Method: Cotton leaf discs were placed onto agar in 24-well microtiter plates and sprayed with aqueous test solutions prepared from 10,000 ppm DMSO stock solutions. After drying the leaf discs were infested with five L1 larvae. The samples were assessed for mortality 3 days after infestation.

[9] = tested on: Spodoptera littoralis (Egyptian Cotton Leaf Worm); assay: Example B18: Spodoptera littoralis, compound in agar absorbed by lettuce roots, mortality, anti-feedant effect and growth inhibition; details: 144 h, test rate of 12.5 ppm, uptake by lettuce roots, Spodoptera eggs, 6 days after infestation, read-out: effect in at least one of the three categories (mortality, anti-feeding, or growth inhibition)
Description: Test compounds were applied by pipette from 10,000 ppm DMSO stock solutions into 24-well plates and mixed with agar. Lettuce seeds were placed onto the agar and the multi well plate was closed by another plate which contained also agar. After 7 days the compound was absorbed by the roots and the lettuce grew into the lid plate. The lettuce leaves were then cut off into the lid plate. Spodoptera eggs were pipetted through a plastic stencil onto a humid gel blotting paper and the lid plate was closed with it. The samples were assessed for mortality, anti-feedant effect and growth inhibition in comparison to untreated samples 6 days after infestation.

[10] = tested on: Euschistus heros (Neotropical Brown Stink Bug); assay: Example B5: Euschistus heros, sprayed soybean leaves, mortality; details: 120 h, application rate of 200 ppm, N2 nymphs, 5 days after infestation
Method: Soybean leaves on agar in 24-well microtiter plates were sprayed with aqueous test solutions prepared from 10,000 ppm DMSO stock solutions. After drying the leaves were infested with N2 nymphs. The samples were assessed for mortality 5 days after infestation.

[11] = tested on: Plutella xylostella (Diamond Back Moth); assay: Example B13: Plutella xylostella, treated artificial diet, mortality and growth inhibition; details: 120 h, application rate of 200 ppm, L2 larvae, 5 days after infestation, read-out: effect in at least one of the two categories (mortality or growth inhibition)
Method: 24-well microtiter plates with artificial diet were treated with aqueous test solutions prepared from 10,000 ppm DMSO stock solutions by pipetting. After drying, the plates were infested with L2 larvae (10 to 15 per well). The samples were assessed for mortality and growth inhibition in comparison to untreated samples 5 days after infestation.

[12] = tested on: Diabrotica balteata (Corn Root Worm); assay: Example B2: Diabrotica balteata, sprayed maize sprouts, mortality and growth inhibition; details: 96 h, application rate of 200 ppm, L2 larvae, 4 days after infestation, read-out: effect in at least one of the two categories (mortality or growth inhibition)
Method: Maize sprouts placed onto an agar layer in 24-well microtiter plates were treated with aqueous test solutions prepared from 10,000 ppm DMSO stock solutions by spraying. After drying, the plates were infested with L2 larvae (6 to 10 per well). The samples were assessed for mortality and growth inhibition in comparison to untreated samples 4 days after infestation.

[13] = tested on: Spodoptera littoralis (Egyptian Cotton Leaf Worm); assay: Example B19: Spodoptera littoralis, compound in agar absorbed by lettuce roots, anti-feedant effect; details: 144 h, test rate of 12.5 ppm, uptake by lettuce roots, Spodoptera eggs, 6 days after infestation, read-out: anti-feeding
Description: Test compounds were applied by pipette prepared from 10,000 ppm DMSO stock solutions into 24-well plates and mixed with agar. Lettuce seeds were placed onto the agar and the multi well plate was closed by another plate which contained also agar. After 7 days the compound was absorbed by the roots and the lettuce grew into the lid plate. The lettuce leaves were then cut off into the lid plate. Spodoptera eggs were pipetted through a plastic stencil onto a humid gel blotting paper and the lid plate was closed with it. The samples were assessed for anti-feedant effect in comparison to untreated samples 6 days after infestation.

[14] = tested on: Myzus persicae (Green Peach Aphid); assay: Example B8: Myzus persicae, sprayed sunflower leaf discs, mortality; details: foliar, 144 h, application rate of 200 ppm, leaf disc spray, aphid population of mixed ages, 6 days after infestation
Method: Sunflower leaf discs were placed onto agar in a 24-well microtiter plate and sprayed with aqueous test solutions prepared from 10,000 ppm DMSO stock solutions. After drying, the leaf discs were infested with an aphid population of mixed ages. The samples were assessed for mortality 6 days after infestation.

[15] = tested on: Plutella xylostella (Diamond Back Moth); assay: Example B10: Plutella xylostella, treated artificial diet, growth inhibition; details: 120 h, application rate of 200 ppm, L2 larvae, 5 days after infestation
Method: 24-well microtiter plates with artificial diet were treated with aqueous test solutions prepared from 10,000 ppm DMSO stock solutions by pipetting. After drying, the plates were infested with L2 larvae (10 to 15 per well). The samples were assessed for growth inhibition in comparison to untreated samples 5 days after infestation. Control of Plutella xylostella by a test sample is given when the growth inhibition is higher than the untreated sample.

CCS(=O)(=O)c1cc(-c2ccc(OC(F)(F)F)cc2)cnc1-c1cn2cnc(C(F)(F)F)cc2n1 [Compound P12]
≥ 80%: mortality at 200 ppm [1] | pest or weed control at 200 ppm [2] | mortality at 12.5 ppm [3] | mortality at 200 ppm [4] | percent control (mortality, anti-feedant effect or growth inhibition) at 200 ppm [5] | pest or weed control at 200 ppm [6] | percent effect (mortality or growth inhibition) at 200 ppm [7] | mortality at 200 ppm [8] | percent effect (mortality, anti-feeding or growth inhibition) at 12.5 ppm [9] | mortality at 200 ppm [10] | percent effect (mortality or growth inhibition) at 200 ppm [11] | percent effect (mortality or growth inhibition) at 200 ppm [12] | pest or weed control at 12.5 ppm [13]

CCS(=O)(=O)c1cc(-c2ccc(Cl)cc2)ccc1-c1cn2cnc(C(F)(F)F)cc2n1 [Compound P3]
≥ 80%: pest or weed control at 200 ppm [2] | mortality at 200 ppm [4] | percent control (mortality, anti-feedant effect or growth inhibition) at 200 ppm [5] | mortality at 200 ppm [8] | percent effect (mortality or growth inhibition) at 200 ppm [12]

CCS(=O)(=O)c1cc(-n2ccc(C(F)(F)F)n2)ccc1-c1cn2cnc(C(F)(F)F)cc2n1 [Compound P1, 2-[2-ethylsulfonyl-4-[3-(trifluoromethyl)pyrazol-1-yl]phenyl]-7-(trifluoromethyl)imidazo[1,2-c]pyrimidine]
≥ 80%: mortality at 200 ppm [1] | mortality at 200 ppm [14] | pest or weed control at 200 ppm [2] | mortality at 12.5 ppm [3] | mortality at 200 ppm [4] | percent control (mortality, anti-feedant effect or growth inhibition) at 200 ppm [5] | pest or weed control at 200 ppm [6] | percent effect (mortality or growth inhibition) at 200 ppm [7] | inhibition at 200 ppm [15] | mortality at 200 ppm [8] | percent effect (mortality, anti-feeding or growth inhibition) at 12.5 ppm [9] | mortality at 200 ppm [10] | percent effect (mortality or growth inhibition) at 200 ppm [11] | percent effect (mortality or growth inhibition) at 200 ppm [12] | pest or weed control at 12.5 ppm [13]

CCS(=O)(=O)c1cc(-c2ccc(C(F)(F)F)cc2)ccc1-c1cn2cnc(C(F)(F)F)cc2n1 [Compound P2, 2-[2-ethylsulfonyl-4-[4-(trifluoromethyl)phenyl]phenyl]-7-(trifluoromethyl)imidazo[1,2-c]pyrimidine]
≥ 80%: mortality at 200 ppm [1] | pest or weed control at 200 ppm [2] | mortality at 200 ppm [4] | percent control (mortality, anti-feedant effect or growth inhibition) at 200 ppm [5] | pest or weed control at 200 ppm [6] | mortality at 200 ppm [8] | percent effect (mortality or growth inhibition) at 200 ppm [11] | percent effect (mortality or growth inhibition) at 200 ppm [12]

CCS(=O)(=O)c1cc(-c2ccc(C(F)(F)F)cc2)cnc1-c1cn2cnc(C(F)(F)F)cc2n1 [Compound P6, 2-[3-ethylsulfonyl-5-[4-(trifluoromethyl)phenyl]-2-pyridyl]-7-(trifluoromethyl)imidazo[1,2-c]pyrimidine]
≥ 80%: mortality at 200 ppm [1] | pest or weed control at 200 ppm [2] | mortality at 12.5 ppm [3] | mortality at 200 ppm [4] | percent control (mortality, anti-feedant effect or growth inhibition) at 200 ppm [5] | pest or weed control at 200 ppm [6] | percent effect (mortality or growth inhibition) at 200 ppm [7] | mortality at 200 ppm [8] | percent effect (mortality, anti-feeding or growth inhibition) at 12.5 ppm [9] | mortality at 200 ppm [10] | percent effect (mortality or growth inhibition) at 200 ppm [11] | percent effect (mortality or growth inhibition) at 200 ppm [12] | pest or weed control at 12.5 ppm [13]
